Measured values as given in patent US20170275287A1, “NOVEL N2, N4, N7, 6-TETRASUBSTITUTED PTERIDINE-2,4,7-TRIAMINE AND 2, 4, 6, 7-TETRASUBSTITUTED PTERIDINE COMPOUNDS AND METHODS OF SYNTHESIS AND USE THEREOF” (Janus Biotherapeutics, Inc., priority 2014, published 2017).
pIC50: −log10 of the molar value.

Legend:
[1] = biological target: T1, TLR7 (Homo sapiens, UniProt Q9NYK1); assay: TLR7 antagonist assay in human PBMCs (ORN1075, IFNα ELISA); type: cell-based; design: PBMCs were isolated from unpurified buffy coat from healthy human donors; host or cells: primary human PBMCs; conditions: human PBMC, 0.5 μM ORN1075, IFNα readout
T1 sequence (Q9NYK1 27-1049): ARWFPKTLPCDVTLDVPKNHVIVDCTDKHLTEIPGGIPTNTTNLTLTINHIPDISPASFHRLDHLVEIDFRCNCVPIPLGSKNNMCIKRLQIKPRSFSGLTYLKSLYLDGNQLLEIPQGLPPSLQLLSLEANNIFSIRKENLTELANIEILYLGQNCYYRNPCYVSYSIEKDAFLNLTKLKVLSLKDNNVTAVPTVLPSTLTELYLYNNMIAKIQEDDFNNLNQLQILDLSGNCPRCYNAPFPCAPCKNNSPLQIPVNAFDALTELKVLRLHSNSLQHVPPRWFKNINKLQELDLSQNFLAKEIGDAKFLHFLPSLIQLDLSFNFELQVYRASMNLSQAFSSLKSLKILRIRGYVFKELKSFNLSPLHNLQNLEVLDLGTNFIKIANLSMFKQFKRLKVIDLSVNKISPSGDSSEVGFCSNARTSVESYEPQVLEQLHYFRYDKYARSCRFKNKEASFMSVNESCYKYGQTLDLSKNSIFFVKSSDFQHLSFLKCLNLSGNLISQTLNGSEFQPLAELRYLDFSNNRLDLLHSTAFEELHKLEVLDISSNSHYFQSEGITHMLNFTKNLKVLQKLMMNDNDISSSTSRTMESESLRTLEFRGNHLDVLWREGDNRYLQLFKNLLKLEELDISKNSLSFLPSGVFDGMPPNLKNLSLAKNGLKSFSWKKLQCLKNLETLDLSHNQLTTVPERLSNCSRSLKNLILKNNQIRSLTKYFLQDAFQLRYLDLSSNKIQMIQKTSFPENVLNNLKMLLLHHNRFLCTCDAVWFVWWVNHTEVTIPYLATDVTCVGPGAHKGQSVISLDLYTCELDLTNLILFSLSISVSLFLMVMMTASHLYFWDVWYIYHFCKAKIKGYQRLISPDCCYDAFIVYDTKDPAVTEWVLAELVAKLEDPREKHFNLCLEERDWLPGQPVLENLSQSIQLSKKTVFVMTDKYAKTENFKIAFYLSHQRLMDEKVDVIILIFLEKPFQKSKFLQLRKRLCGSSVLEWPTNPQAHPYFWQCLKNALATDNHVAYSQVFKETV
Protocol: (§1) PBMCs were isolated from unpurified buffy coat from healthy human donors (Blood Research Components, LLC). For antagonist testing, cells were plated on 96-well U-bottom plates at 3×10^6 cells/ml. Antagonist compounds were added to cells in duplicate wells and titrated from 10 μM in 1:3 serial dilutions (8 antagonist concentrations tested in total). After approximately 30 minutes, cells were stimulated with agonist compound (see table 2 for agonist concentrations). After stimulation, cells were incubated overnight at 37° C. To increase the stability of the ssRNA, 3 μg/ml DOTAP (Roche) was added to ORN1075 agonist solutions. All dilutions were made in RPMI-1640 media (Sigma, cat.# R7388)+5% human male AB sera (Sigma, cat.# H4522)+1× Penicillin/Streptomycin solution (VWR, cat.#82026-730).
(§2) TLR activity was measured in PBMCs and neutrophils by ELISA using cytokine readouts specific for the TLR of interest.
(§3) IFNα was measured as a readout for TLR7 and TLR9 activity in PBMCs stimulated with either ORN1075, or ODN2395, respectively, using a Human Pan-IFNα ELISA kit (MABTech, cat.#3425-1H-20). PBMC supernatant was diluted 1:3 in PBS+0.05% tween-20+0.1% BSA. Absorbance at 450 nm was recorded using a Molecular Devices SpectraMax340PC plate reader. The IC50 for each antagonist was subsequently calculated following the method described below.
(§4) Raw ELISA datasets for each 96-well plate, consisting of absorbance readings at […], were first imported in Microsoft Excel to calculate the average absorbance for each standard or antagonist concentration. The averaged data was then imported into SigmaPlot v.11.0 where a standard curve was calculated and used to extrapolate the relative concentration of TLR readout (TNFα, IFNα, etc.) produced. The dose-response curve of each antagonist was then plotted with SigmaPlot v.11.0 on a Log scale. Concentrations of TLR readout were converted to a percentage relative to the average maximum concentration for that ELISA plate in Microsoft Excel. The IC50 for each antagonist was then determined with the SigmaPlot regression wizard using a 4-parameter Hill equation. Each antagonist was tested in a minimum of 3 independent experiments and IC50 results were compiled and averaged using Microsoft Excel.

[2] = biological target: T2, TLR9 (Homo sapiens, UniProt Q9NR96); assay: TLR9 antagonist assay in human PBMCs (ODN2395, IFNα ELISA); type: cell-based; conditions: human PBMC, 0.25 μM ODN2395, IFNα readout
T2 construct: PBMCs were isolated from unpurified buffy coat from healthy human donors; host or cells: primary human PBMCs
T2 sequence (Q9NR96 26-1032): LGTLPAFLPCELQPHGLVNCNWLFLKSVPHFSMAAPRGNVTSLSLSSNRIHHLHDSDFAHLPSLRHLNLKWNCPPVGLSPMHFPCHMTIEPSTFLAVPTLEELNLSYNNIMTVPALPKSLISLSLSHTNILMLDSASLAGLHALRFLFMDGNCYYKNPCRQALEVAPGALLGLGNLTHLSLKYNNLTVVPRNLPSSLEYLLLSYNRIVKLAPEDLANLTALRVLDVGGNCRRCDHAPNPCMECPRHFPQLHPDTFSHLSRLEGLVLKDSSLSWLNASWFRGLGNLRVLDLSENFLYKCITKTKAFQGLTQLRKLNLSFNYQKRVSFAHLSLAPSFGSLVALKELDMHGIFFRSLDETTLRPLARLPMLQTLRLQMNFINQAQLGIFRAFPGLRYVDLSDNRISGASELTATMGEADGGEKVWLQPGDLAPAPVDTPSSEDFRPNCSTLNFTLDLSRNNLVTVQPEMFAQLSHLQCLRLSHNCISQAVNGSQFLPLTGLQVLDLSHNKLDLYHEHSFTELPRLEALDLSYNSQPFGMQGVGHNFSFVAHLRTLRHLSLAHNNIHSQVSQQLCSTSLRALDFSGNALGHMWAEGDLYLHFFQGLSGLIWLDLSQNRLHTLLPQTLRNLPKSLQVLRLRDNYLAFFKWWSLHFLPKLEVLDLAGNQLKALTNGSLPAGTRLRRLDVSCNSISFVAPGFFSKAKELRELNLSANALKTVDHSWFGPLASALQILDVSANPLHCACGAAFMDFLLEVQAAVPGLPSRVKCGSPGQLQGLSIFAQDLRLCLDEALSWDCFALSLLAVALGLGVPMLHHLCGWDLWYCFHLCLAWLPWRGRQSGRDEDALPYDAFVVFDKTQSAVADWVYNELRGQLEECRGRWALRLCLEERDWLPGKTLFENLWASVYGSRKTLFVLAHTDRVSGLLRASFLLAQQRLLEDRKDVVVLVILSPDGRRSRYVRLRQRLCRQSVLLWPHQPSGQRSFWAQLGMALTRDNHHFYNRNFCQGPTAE
Protocol: as §1, §2, §3, §4

| SMILES | pIC50 [1] | pIC50 [2] |
| --- | --- | --- |
| CN1CCN(c2nc(NCCN3CCOCC3)c3ncc(-c4ccccc4)nc3n2)CC1 [JB6059] | 6.84 | 6.52 |
| CN1CCN(c2nc3nc(-c4ccccc4)nc(NCCN4CCOCC4)c3nc2OCCN2CCOCC2)CC1 [JB6116] | 7.09 | 6.53 |
| CN1CCN(c2nc(NCCN3CCOCC3)c3nc(Cl)c(NCCN4CCOCC4)nc3n2)CC1 [JB6121, 6-chloro-2-(4-methylpiperazin-1-yl)-N^4,N^7-bis(2-morpholinoethyl)pteridine-4,7-diamine] | 7.60 | 6.84 |
| CCOc1nc2c(NCCN3CCCC3)nc(-c3ccccc3)nc2nc1N1CCN(C)CC1 [JB6131] | 7.19 | 6.49 |
| CCCCNc1nc(NCCN2CCOCC2)c2nc(Cl)c(NCCN3CCOCC3)nc2n1 [JB6140] | 6.62 | 7.00 |
| C[C@@H]1CN(CCNc2nc3nc(N4CCN(C)CC4)nc(NCCN4C[C@@H](C)O[C@@H](C)C4)c3nc2Cl)C[C@H](C)O1 [JB6143] | 7.62 | 7.27 |
| Clc1nc2c(NCCN3CCOCC3)nc(N3CCOCC3)nc2nc1NCCN1CCOCC1 [JB6147] | 6.65 | 5.06 |
| COCCN1CCN(c2nc(NCCN3CCOCC3)c3nc(Cl)c(NCCN4CCOCC4)nc3n2)CC1 [JB6160] | 7.55 | 7.22 |
| Clc1nc2c(NCCN3CCOCC3)nc(NCc3ccccc3)nc2nc1NCCN1CCOCC1 [JB6172] | 7.21 | 6.78 |
| CCOc1nc2c(NCCN3CCOCC3)nc(NCc3ccccc3)nc2nc1NCCN1CCOCC1 [JB6180] | 6.30 | 6.94 |
| CCCCNc1nc(NCCN2CCOCC2)c2nc(SCC)c(NCCN3CCOCC3)nc2n1 [JB6185] | 7.13 | 7.21 |
